Data taken from patent US10633579B2, “Use of environmentally friendly solvents to replace glycol-based solvents” (RHODIA OPERATIONS, priority 2011, dated 2020).

Legend:
Assay type in all cases: physicochemical
[1] = Wettability of EGMBE compared with alternative solvents/blends
[2] = Miscibility test with common oilfield solvents (Tables 3-5); set-up: key: S = separate; M = miscible; settings: 50/50 volume per volume; for Solubility in Crude oil: shaken about a minute, let stand about 5 mins
Experimental: For each test solvent, it is blended with a common solvent at 50/50 volume per volume ratio. It is shaken vigorously for about a minute and let stand for about 5 mins. A complete miscibility is recorded if there is no formation of layers. Formation of turbid mixture or multiple layers is recorded as immiscible or separate.

[3] = Surface tension by the ring method (Du Nouy method); settings: undiluted solvent, about 50 milliliters sample
Experimental: Surface Tension: Referring generally to Table 2, interfacial tension is measured for each test solvent or solvent blend for EGMBE-replacement. No further dilution is performed on the solvent prior to measurement. Interfacial tension was measured using about 50 milliliters sample by the ring method (Du Nouy method).

[4] = Blends miscible in water and in mud solvents (Table 6); settings: 50/50 wt, room temperature
Experimental: Miscibility Test: Referring generally to Tables 4-6, the test solvent or solvent blend for EGMBE-replacement is mixed with common solvents used in oilfield industries to determine miscibility. […] It is shaken vigorously for about a minute and let stand for about 5 mins. A complete miscibility is recorded if there is no formation of layers. Formation of turbid mixture or multiple layers is recorded as immiscible or separate.

[5] = Miscibility of alkyldimethylamides as stated in the text

SMILES	wettability, Mean (°) [1] [°]	Solubility in Alpha Olefin C1618 [2]	Solubility in Brines (Forties FW) [2]	Solubility in D-Limonene [2]	Solubility in Dodecane (to mimic Kerosen) [2]	Solubility in Exxsol D100 [2]	Solubility in Solvesso 150 ND [2]	Solubility in Water [2]	Solubility in isoparrafin [2]	Solubility in isopropanol [2]	Solubility in toluene [2]	Solubility in xylene [2]	Solubility in Crude oil [2]	ST (surface tension) [3] [mN/m]	also measured
CC1(C)OCC(CO)O1 (stereo not shown) [Augeo SL 191]	50.5	S	M	M	S	S	M	M	S	M	M	M	S	31.9988	
CCCCOCCOCCO [Butyl Carbitol, diethylene glycol butyl ether]	50.8														
CC(C)O [IPA, isopropyl alcohol]		M	M	M	M	M	M	M	M	M	M	M	M		
CCCCCCCC(=O)N(C)C [N,N-dimethyloctanamide]															miscibility [5]: 0.43%
O [Water]	109.2														

More lines, main results first:

wettability, Mean (°) [1] [°]	Solubility in Alpha Olefin C1618 [2]	Solubility in Brines (Forties FW) [2]	Solubility in D-Limonene [2]	Solubility in Dodecane (to mimic Kerosen) [2]	Solubility in Exxsol D100 [2]	Solubility in Solvesso 150 ND [2]	Solubility in Water [2]	Solubility in isoparrafin [2]	Solubility in isopropanol [2]	Solubility in toluene [2]	Solubility in xylene [2]	Solubility in Crude oil [2]	ST (surface tension) [3] [mN/m]	SMILES	also measured
29.8	M	S	M	M	M	M	S	M	M	M	M	M		CCCCOCC(C)O (stereo not shown) [Dowanol, propylene glycol n-butyl ether]	
45.0													26.3757	CCCCOCCO [EGMBE, ethyleneglycolmonobutyl ether]	Miscibility in Alpha Olefin C1618 [4]: miscible; Miscibility in D-Limonene [4]: miscible; Miscibility in Exxsol D100 [4]: miscible; Miscibility in Isopar L [4]: miscible; Miscibility in Water [4]: miscible; Miscibility in xylene [4]: miscible
48.9	S	M	M	S	S	M	M	S	M	M	M	S	33.871	COC(=O)C(C)CCC(=O)N(C)C (stereo not shown) [Polarclean]	
